Assays:
[1] = target: NEK2 (Homo sapiens, UniProt P51955); details: 1 µM, ATP at Km
[2] = target: PKCEPSILON (Homo sapiens, UniProt Q02156); details: 1 µM, ATP at Km
[3] = target: HIPK1 (Homo sapiens, UniProt Q86Z02); details: 1 µM, ATP at Km
[4] = system: phospho-STAT1^SER727; assay: cells; details: Homo sapiens, SW-620, read-out: pSTAT1^SER727 IC50 ± SD
[5] = target: MTOR/FKBP12 (Homo sapiens, UniProt P42345); details: 1 µM, ATP at Km
[6] = target: FAK (Homo sapiens, UniProt Q05397); details: 1 µM, ATP at Km
Chain of FAK (Q05397 whole entry): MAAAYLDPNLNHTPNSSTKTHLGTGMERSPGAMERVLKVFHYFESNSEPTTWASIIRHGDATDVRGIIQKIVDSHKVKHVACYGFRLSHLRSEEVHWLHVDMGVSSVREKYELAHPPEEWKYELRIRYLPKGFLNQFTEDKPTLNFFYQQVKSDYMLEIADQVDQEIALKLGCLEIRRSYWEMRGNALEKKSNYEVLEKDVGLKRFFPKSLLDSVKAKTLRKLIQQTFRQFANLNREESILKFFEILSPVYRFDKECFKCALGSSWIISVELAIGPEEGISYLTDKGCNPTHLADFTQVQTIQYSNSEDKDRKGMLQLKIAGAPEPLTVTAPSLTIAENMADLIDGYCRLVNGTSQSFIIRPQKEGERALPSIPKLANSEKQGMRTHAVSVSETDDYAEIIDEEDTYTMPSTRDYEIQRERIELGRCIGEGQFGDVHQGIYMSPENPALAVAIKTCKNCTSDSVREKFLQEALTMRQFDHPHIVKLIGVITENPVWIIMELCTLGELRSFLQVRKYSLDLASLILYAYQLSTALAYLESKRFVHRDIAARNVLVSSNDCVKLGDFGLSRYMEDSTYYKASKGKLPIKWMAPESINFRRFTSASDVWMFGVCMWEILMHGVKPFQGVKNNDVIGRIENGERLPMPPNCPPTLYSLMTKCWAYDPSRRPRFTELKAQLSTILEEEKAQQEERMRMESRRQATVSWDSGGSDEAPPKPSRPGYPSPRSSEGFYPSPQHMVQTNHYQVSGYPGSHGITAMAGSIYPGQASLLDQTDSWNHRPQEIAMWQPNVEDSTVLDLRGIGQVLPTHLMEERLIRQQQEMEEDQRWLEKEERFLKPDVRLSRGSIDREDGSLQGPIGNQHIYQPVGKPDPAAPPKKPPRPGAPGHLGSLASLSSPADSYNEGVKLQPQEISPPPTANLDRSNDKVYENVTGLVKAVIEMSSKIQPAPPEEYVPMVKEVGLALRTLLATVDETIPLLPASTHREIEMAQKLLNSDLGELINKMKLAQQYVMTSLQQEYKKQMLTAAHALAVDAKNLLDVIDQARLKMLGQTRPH

[7] = target: MAPK2 (Homo sapiens, UniProt P28482); details: 1 µM, ATP at Km
[8] = target: FMS (Homo sapiens, UniProt P07333); details: 1 µM, ATP at Km
[9] = target: […] (Homo sapiens, UniProt P16234); details: 1 µM, ATP at Km
[10] = target: SYK (Homo sapiens, UniProt P43405); details: 1 µM, ATP at Km
[11] = target: PRKAA2 (Homo sapiens, UniProt P54646); details: 1 µM, ATP at Km
Chain of PRKAA2 (P54646 whole entry): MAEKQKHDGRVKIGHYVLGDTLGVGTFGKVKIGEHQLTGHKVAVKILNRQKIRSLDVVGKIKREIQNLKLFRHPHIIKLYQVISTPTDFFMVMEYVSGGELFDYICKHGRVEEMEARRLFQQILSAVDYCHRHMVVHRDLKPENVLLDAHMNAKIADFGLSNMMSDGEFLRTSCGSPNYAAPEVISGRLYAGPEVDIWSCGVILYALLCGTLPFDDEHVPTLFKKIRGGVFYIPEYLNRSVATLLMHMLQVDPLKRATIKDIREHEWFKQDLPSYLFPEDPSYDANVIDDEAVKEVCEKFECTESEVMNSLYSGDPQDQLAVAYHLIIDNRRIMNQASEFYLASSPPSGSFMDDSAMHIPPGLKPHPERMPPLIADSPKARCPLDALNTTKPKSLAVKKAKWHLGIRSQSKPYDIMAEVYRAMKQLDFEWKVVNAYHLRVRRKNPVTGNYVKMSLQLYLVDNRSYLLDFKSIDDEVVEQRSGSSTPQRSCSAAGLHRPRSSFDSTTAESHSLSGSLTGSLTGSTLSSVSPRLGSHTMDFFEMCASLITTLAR
Chain of PRKAA2 (Q9Y478 whole entry partner): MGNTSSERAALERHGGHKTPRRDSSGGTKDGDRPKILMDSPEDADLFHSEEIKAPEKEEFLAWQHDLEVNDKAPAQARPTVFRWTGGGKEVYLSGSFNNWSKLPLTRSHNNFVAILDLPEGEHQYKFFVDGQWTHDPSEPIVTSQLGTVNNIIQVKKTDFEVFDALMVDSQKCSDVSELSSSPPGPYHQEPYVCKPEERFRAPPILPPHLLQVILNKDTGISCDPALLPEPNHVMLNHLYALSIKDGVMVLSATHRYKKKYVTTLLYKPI
Chain of PRKAA2 (P54619 whole entry partner): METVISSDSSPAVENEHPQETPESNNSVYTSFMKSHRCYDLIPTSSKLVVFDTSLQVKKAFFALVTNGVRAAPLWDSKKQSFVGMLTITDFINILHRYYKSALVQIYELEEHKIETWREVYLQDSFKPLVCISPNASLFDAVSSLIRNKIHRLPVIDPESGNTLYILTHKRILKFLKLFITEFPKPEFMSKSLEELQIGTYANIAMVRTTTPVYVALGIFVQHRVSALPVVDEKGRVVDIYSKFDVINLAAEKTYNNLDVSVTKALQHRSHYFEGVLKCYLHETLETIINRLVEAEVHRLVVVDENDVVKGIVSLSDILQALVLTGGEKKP

[12] = target: FYN (Homo sapiens, UniProt P06241); details: 1 µM, ATP at Km
[13] = target: TSSK2 (Homo sapiens, UniProt Q96PF2); details: 1 µM, ATP at Km
[14] = target: EEF-2K (Homo sapiens, UniProt O00418); details: 1 µM, ATP at Km
Chain of EEF-2K (O00418 whole entry): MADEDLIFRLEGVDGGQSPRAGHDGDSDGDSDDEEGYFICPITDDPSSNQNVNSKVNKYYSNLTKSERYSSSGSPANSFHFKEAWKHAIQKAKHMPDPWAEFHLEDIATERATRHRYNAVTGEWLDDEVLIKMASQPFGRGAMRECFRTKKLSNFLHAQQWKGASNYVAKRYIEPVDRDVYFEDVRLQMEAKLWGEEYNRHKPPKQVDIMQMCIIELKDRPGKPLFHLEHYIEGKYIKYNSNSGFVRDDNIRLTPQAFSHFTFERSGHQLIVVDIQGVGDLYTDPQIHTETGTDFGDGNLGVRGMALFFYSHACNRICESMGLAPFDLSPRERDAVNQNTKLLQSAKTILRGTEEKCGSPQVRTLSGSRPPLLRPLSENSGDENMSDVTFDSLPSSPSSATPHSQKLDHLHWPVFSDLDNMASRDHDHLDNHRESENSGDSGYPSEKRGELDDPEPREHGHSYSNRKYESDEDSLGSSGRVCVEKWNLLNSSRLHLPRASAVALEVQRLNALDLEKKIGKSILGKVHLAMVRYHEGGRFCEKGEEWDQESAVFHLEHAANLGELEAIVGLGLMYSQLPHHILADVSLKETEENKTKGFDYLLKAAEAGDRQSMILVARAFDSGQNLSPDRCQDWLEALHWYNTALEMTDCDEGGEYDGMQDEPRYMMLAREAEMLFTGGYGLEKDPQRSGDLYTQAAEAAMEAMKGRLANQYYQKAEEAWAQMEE

[15] = target: CAMKIV (Homo sapiens, UniProt Q16566); details: 1 µM, ATP at Km
[16] = target: EPHA7 (Homo sapiens, UniProt Q15375); details: 1 µM, ATP at Km
[17] = target: PKG1ALPHA (Homo sapiens, UniProt Q13976); details: 1 µM, ATP at Km
[18] = target: RSK4 (Homo sapiens, UniProt Q9UK32); details: 1 µM, ATP at Km
[19] = target: RET (Homo sapiens, UniProt P07949); details: 1 µM, ATP at Km
[20] = target: RSK1 (Homo sapiens, UniProt Q15418); details: 1 µM, ATP at Km
[21] = target: EPHA8 (Homo sapiens, UniProt P29322); details: 1 µM, ATP at Km
[22] = target: CK1GAMMA2 (Homo sapiens, UniProt P78368); details: 1 µM, ATP at Km
[23] = target: FES (Homo sapiens, UniProt P07332); details: 1 µM, ATP at Km
[24] = target: SAPK2A (Homo sapiens, UniProt Q16539); details: 1 µM, ATP at Km
[25] = target: TBK1 (Homo sapiens, UniProt Q9UHD2); details: 1 µM, ATP at Km
[26] = target: SGK2 (Homo sapiens, UniProt Q9HBY8); details: 1 µM, ATP at Km
[27] = target: CLK3 (Homo sapiens, UniProt P49761); details: 1 µM, ATP at Km
[28] = target: MAPK1 (Homo sapiens, UniProt P27361); details: 1 µM, ATP at Km
[29] = target: PLK1 (Homo sapiens, UniProt P53350); details: 1 µM, ATP at Km
Chain of PLK1 (P53350 whole entry): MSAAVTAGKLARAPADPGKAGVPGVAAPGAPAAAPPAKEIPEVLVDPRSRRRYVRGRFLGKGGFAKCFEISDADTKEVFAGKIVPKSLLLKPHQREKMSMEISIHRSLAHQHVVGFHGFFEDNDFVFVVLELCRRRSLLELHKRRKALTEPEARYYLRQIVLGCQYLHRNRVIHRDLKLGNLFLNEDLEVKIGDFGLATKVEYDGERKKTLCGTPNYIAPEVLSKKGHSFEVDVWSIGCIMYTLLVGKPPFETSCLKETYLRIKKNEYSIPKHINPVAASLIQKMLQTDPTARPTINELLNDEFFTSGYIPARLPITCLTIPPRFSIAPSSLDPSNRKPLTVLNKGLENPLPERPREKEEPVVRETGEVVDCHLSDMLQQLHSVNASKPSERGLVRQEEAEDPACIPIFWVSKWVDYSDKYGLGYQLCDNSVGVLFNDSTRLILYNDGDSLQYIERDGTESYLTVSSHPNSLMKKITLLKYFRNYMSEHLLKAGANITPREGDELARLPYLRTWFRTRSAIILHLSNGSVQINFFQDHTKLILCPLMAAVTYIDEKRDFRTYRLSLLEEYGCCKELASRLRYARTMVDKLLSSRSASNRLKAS

[30] = target: ULK2 (Homo sapiens, UniProt Q8IYT8); details: 1 µM, ATP at Km
[31] = target: GRK6 (Homo sapiens, UniProt P43250); details: 1 µM, ATP at Km
Chain of GRK6 (P43250 whole entry): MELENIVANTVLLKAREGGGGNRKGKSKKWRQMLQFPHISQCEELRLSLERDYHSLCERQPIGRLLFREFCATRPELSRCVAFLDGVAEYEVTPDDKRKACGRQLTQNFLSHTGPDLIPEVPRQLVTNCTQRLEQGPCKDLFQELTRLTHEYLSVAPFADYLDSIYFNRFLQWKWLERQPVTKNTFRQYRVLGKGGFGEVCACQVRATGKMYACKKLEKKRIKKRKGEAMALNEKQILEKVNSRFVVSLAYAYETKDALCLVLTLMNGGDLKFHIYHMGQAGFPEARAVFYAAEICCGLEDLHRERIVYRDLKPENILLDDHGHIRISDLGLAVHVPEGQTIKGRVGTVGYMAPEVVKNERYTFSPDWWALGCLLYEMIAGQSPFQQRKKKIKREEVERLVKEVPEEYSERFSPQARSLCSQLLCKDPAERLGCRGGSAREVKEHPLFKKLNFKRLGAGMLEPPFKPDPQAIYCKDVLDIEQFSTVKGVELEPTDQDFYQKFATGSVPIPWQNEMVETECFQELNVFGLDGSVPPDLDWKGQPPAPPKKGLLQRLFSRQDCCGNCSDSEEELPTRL

[32] = target: PLK3 (Homo sapiens, UniProt Q9H4B4); details: 1 µM, ATP at Km
[33] = target: GSK3BETA (Homo sapiens, UniProt P49841); details: 1 µM, ATP at Km
[34] = target: BLK (Homo sapiens, UniProt P51451); details: 1 µM, ATP at Km
[35] = target: DDR2 (Homo sapiens, UniProt Q16832); details: 1 µM, ATP at Km
[36] = target: NEK3 (Homo sapiens, UniProt P51956); details: 1 µM, ATP at Km
[37] = target: DRAK1 (Homo sapiens, UniProt Q9UEE5); details: 1 µM, ATP at Km
[38] = target: RIPK2 (Homo sapiens, UniProt O43353); details: 1 µM, ATP at Km
[39] = target: NEK6 (Homo sapiens, UniProt Q9HC98); details: 1 µM, ATP at Km
[40] = target: TRKB (Homo sapiens, UniProt Q16620); details: 1 µM, ATP at Km
[41] = target: TAO3 (Homo sapiens, UniProt Q9H2K8); details: 1 µM, ATP at Km
Chain of TAO3 (Q9H2K8 whole entry): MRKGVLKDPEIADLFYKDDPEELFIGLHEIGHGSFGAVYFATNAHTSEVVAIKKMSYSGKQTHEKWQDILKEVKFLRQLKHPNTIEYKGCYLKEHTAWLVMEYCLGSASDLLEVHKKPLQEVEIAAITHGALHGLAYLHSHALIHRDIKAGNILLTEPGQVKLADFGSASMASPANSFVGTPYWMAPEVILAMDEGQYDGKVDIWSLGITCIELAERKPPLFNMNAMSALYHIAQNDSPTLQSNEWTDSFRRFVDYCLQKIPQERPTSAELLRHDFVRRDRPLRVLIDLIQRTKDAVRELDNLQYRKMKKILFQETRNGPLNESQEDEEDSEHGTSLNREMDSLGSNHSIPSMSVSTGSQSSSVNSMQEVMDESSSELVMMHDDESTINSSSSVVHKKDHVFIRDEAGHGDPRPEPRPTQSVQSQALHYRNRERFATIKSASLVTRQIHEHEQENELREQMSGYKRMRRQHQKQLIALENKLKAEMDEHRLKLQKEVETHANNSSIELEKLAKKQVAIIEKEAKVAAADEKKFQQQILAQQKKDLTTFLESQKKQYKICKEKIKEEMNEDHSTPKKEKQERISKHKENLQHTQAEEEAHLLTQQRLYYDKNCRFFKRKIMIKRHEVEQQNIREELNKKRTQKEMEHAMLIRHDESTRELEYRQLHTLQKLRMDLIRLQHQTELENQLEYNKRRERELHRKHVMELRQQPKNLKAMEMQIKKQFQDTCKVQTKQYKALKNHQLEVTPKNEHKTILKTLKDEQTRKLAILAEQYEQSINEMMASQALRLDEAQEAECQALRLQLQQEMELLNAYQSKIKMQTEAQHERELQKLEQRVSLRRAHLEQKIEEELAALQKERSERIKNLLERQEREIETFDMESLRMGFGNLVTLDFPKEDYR

[42] = target: TAO1 (Homo sapiens, UniProt Q7L7X3); details: 1 µM, ATP at Km
[43] = target: MNK2 (Homo sapiens, UniProt Q9HBH9); details: 1 µM, ATP at Km
[44] = target: MRCKBETA (Homo sapiens, UniProt Q9Y5S2); details: 1 µM, ATP at Km

## COC1CN(C(=O)c2ccc3c(N)ncc(-c4ccc(-c5cnn(C)c5)cc4)c3n2)C1 [Compound 51]
[1]
  percentage effect: -5%
[2]
  percentage effect: 14%
[3]
  percentage effect: 5%
[4]
  IC50: 17.9 ± 10.6 nM
[5]
  percentage effect: -4%
[6]
  percentage effect: 3%
[7]
  percentage effect: 6%
[8]
  percentage effect: -37%
[9]
  percentage effect: -3%
[10]
  percentage effect: -10%
[11]
  percentage effect: -1%
[12]
  percentage effect: 1%
[13]
  percentage effect: 15%
[14]
  percentage effect: 2%
[15]
  percentage effect: -17%
[16]
  percentage effect: -4%
[17]
  percentage effect: 0%
[18]
  percentage effect: 9%
[19]
  percentage effect: -2%
[20]
  percentage effect: 13%
[21]
  percentage effect: -9%
[22]
  percentage effect: -24%
[23]
  percentage effect: -3%
[24]
  percentage effect: -4%
[25]
  percentage effect: -23%
[26]
  percentage effect: -46%
[27]
  percentage effect: 2%
[28]
  percentage effect: -13%
[29]
  percentage effect: 1%
[30]
  percentage effect: 4%
[31]
  percentage effect: 4%
[32]
  percentage effect: -9%
[33]
  percentage effect: 1%
[34]
  percentage effect: 0%
[35]
  percentage effect: 6%
[36]
  percentage effect: -14%
[37]
  percentage effect: 1%
[38]
  percentage effect: -16%
[39]
  percentage effect: -2%
[40]
  percentage effect: -23%
[41]
  percentage effect: -16%
[42]
  percentage effect: -1%
[43]
  percentage effect: -7%
[44]
  percentage effect: -4%

## COC1CN(C(=O)c2ccc3c(N)ncc(-c4ccc(-c5cnn(C)c5)cc4)c3c2)C1 [Compound 59]
[1]
  percentage effect: -9%
[2]
  percentage effect: 8%
[3]
  percentage effect: 0%
[4]
  IC50: 114 ± 20.6 nM
[5]
  percentage effect: 4%
[6]
  percentage effect: -18%
[7]
  percentage effect: -4%
[8]
  percentage effect: -14%
[9]
  percentage effect: 11%
[10]
  percentage effect: -11%
[11]
  percentage effect: 2%
[12]
  percentage effect: 8%
[13]
  percentage effect: -26%
[14]
  percentage effect: 8%
[15]
  percentage effect: 23%
[16]
  percentage effect: 1%
[17]
  percentage effect: 17%
[18]
  percentage effect: 13%
[19]
  percentage effect: 6%
[20]
  percentage effect: -14%
[21]
  percentage effect: -12%
[22]
  percentage effect: -9%
[23]
  percentage effect: -7%
[24]
  percentage effect: -9%
[25]
  percentage effect: 17%
[26]
  percentage effect: 38%
[27]
  percentage effect: -19%
[28]
  percentage effect: -20%
[29]
  percentage effect: -6%
[30]
  percentage effect: 8%
[31]
  percentage effect: 8%
[32]
  percentage effect: 5%
[33]
  percentage effect: -9%
[34]
  percentage effect: -26%
[35]
  percentage effect: 24%
[36]
  percentage effect: -2%
[37]
  percentage effect: -18%
[38]
  percentage effect: -5%
[39]
  percentage effect: -34%
[40]
  percentage effect: 0%
[41]
  percentage effect: -6%
[42]
  percentage effect: 9%
[43]
  percentage effect: -4%
[44]
  percentage effect: 13%
